One experiment addresses TEAD1 (Homo sapiens (Human), UniProt P28347). Put plainly: TR-FRET lipid pocket probe competition assay (Lipid HTRF), TEAD1.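 Further: His-tagged TEAD1 with biotinylated probe, detected via Europium anti-His and XL665 streptavidin, probe displacement lowers TR-FRET signal, IC50 from four-parameter nonlinear fit.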 In kind it is binding. As to conditions: 4 hours pre-incubation; read-out: Lipid HTRF TEAD1 IC50.
Another experiment concerns the target TEAD3 (Homo sapiens (Human), UniProt Q99594). Put plainly: TR-FRET lipid pocket probe competition assay (Lipid HTRF), TEAD3. The format is binding. As to conditions: 4 hours pre-incubation; read-out: Lipid HTRF TEAD3 IC50. Background: Time-resolved FRET reads energy transfer from a long-lived donor to a nearby acceptor.
Another experiment has as its target TEAD4 (Homo sapiens (Human), UniProt Q15561). Put plainly: TR-FRET lipid pocket probe competition assay (Lipid HTRF), TEAD4.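 Further: His-tagged TEAD4 with biotinylated lipid-pocket probe, read by Europium anti-His and XL665 streptavidin, where probe displacement lowers the TR-FRET signal, IC50 from a four-parameter fit.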 The format is binding. As to conditions: 4 hours pre-incubation; read-out: Lipid HTRF TEAD4 IC50.
Another experiment has as its target TEAD2 (Homo sapiens (Human), UniProt Q15562).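 Further: TR-FRET competition assay with His-tagged TEAD protein and a biotinylated lipid pocket probe, compound pre-incubated 30 min or 4 h at room temperature, displacement lowers signal.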

The record followed here is patent publication US12110276B2 (Genentech, Inc., priority 2021, dated 2024).

Molecules are shown by their SMILES. Structures can show the parent of a compound that is named as a salt.

The IC50 is the concentration at which inhibition is half-maximal.

TEAD2, sequence (Q15562 whole entry, species assumed): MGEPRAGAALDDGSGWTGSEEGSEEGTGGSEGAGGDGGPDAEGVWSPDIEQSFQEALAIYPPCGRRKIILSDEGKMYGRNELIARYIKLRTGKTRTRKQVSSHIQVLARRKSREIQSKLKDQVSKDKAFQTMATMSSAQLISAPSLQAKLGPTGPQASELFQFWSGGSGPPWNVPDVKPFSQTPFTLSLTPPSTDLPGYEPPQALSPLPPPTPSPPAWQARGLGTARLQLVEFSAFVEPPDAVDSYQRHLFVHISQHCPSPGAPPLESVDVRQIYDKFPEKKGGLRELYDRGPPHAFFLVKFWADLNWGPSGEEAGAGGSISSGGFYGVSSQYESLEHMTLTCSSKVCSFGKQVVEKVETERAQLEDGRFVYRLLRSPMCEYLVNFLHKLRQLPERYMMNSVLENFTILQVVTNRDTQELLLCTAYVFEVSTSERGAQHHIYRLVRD
TEAD3, sequence (Q99594 whole entry, species assumed): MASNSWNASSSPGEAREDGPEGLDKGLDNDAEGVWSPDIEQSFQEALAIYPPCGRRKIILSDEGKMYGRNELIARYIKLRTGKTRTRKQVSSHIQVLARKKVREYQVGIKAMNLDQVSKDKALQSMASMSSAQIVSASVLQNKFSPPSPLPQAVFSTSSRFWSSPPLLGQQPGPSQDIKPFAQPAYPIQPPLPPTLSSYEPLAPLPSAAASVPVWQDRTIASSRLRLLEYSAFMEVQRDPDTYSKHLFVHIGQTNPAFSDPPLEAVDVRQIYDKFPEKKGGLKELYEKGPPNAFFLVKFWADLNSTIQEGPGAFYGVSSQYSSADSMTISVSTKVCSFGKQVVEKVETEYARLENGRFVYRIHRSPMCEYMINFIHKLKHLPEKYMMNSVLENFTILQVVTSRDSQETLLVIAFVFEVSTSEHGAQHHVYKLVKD
TEAD1, sequence (P28347 whole entry, species assumed): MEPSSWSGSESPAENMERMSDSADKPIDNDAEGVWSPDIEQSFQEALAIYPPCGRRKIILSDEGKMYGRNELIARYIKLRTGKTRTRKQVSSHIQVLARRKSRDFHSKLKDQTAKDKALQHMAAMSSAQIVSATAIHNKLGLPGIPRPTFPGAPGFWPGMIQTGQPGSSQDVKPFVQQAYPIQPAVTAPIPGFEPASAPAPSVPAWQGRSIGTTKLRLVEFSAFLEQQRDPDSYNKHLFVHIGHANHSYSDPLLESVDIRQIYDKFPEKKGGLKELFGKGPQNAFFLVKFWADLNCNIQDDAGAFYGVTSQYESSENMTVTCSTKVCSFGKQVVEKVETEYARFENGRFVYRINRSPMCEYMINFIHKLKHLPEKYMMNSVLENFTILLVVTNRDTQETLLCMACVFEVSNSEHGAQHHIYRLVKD
TEAD4, sequence (Q15561 whole entry, species assumed): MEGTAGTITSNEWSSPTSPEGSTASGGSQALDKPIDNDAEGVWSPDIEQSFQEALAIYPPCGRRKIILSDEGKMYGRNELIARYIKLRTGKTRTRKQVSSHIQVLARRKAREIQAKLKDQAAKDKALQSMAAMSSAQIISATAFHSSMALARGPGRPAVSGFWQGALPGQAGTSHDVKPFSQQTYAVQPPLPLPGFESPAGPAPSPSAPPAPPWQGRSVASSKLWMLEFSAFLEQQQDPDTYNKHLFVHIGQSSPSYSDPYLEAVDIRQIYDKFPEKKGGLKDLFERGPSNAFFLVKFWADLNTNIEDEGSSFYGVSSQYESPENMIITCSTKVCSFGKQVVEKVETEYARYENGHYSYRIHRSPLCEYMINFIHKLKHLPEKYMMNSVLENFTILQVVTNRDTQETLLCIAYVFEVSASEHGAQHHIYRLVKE
Procedure for TEAD3: His-tagged TEAD proteins are pre-incubated with TEAD project compounds for 30 minutes or 4 hours at room temperature. Biotinylated lipid pocket probes are then added to the TEAD/Compound mixture and incubated for 60 minutes at room temperature. The lipid pocket probe competes with the test compound for the TEAD lipid pocket until equilibrium is reached. After 60 minutes, Europium labelled anti-His (Perkin Elmer #AD0110) and XL665 labelled streptavidin (CIS Bio 610SAXAC) are added to the TEAD/test compound/lipid pocket mixture and incubated for 30 minutes or 4 hours. […] If a TEAD lipid pocket binder such as binds and displaces the lipid pocket probe, the disruption of the TEAD:probe interaction results in a decrease in TR-FRET signal. The potency of compounds as TEAD lipid pocket binders is determined by IC50 value generated using a non-linear 4 parameter curve fit.

For the molecule `O=C(NCc1nn(-c2ccc(OC(F)(F)F)cc2)c2nccc(CO)c12)C1=CCC1` [Compound 148, N-((4-(Hydroxymethyl)-1-(4-(trifluoromethoxy)phenyl)-1H-pyrazolo[3,4-b]pyridin-3-yl)methyl)cyclobut-1-enecarboxamide], the IC50 at TEAD1 is 17 nM; on TEAD3 it was 280 nM; on TEAD4 it was 14 nM; on TEAD2 it was 90 nM.

Regarding `C=CC(=O)N(C)Cc1nn(-c2ccc(OC(F)(F)F)cc2)c2ccccc12` [Compound 18, N-methyl-N-((1-(4-(trifluoromethoxy)phenyl)-1H-indazol-3-yl)methyl)acrylamide], the IC50 at TEAD1 was 6.8 nM; on TEAD3 it was 100 nM; at TEAD4 it was 3.4 nM; against TEAD2, 66 nM.

Regarding `C=C(F)C(=O)N1CC(c2nn(-c3ccc(OC(F)(F)F)cc3)c3nccc(-c4cnn(CCO)c4)c23)C1` [Compound 28, 2-Fluoro-1-(3-(4-(1-(2-hydroxyethyl)-1H-pyrazol-4-yl)-1-(4-(trifluoromethoxy)phenyl)-1H-pyrazolo[3,4-b]pyridin-3-yl)azetidin-1-yl)prop-2-en-1-one], the IC50 at TEAD1 was found to be 23 nM; on TEAD3, 5700 nM; at TEAD4, 33 nM; against TEAD2, 220 nM.

`C=CC(=O)NCc1nn(-c2ccc(OC(F)(F)F)cc2)c2nccc(-c3cnn(CCOC)c3)c12` [Compound 167, N-[[4-[1-(2-methoxyethyl)pyrazol-4-yl]-1-[4-(trifluoromethoxy)phenyl]pyrazolo[3,4-b]pyridin-3-yl]methyl]prop-2-enamide]: the IC50 was 57 nM at TEAD1, 1700 nM at TEAD3, 35 nM on TEAD4 and 210 nM on TEAD2.

In the case of `C=CC(=O)NCc1nn(-c2ccc(OC(F)(F)F)cc2)c2nccc([C@H]3C[C@H](O)C3)c12` [Compound 56, N-((4-(trans-3-hydroxycyclobutyl)-1-(4-(trifluoromethoxy)phenyl)-1H-pyrazolo[3,4-b]pyridin-3-yl)methyl)acrylamide], the IC50 at TEAD1 amounted to 39 nM; at TEAD3 it was 50000 nM; on TEAD4 it was 11 nM; on TEAD2 it was 85 nM.

With `C=CC(=O)NCc1nn(-c2ccc(OC(F)(F)F)cc2)c2nccc(-c3cn[nH]c3)c12` [Compound 134, N-((4-(1H-Pyrazol-4-yl)-1-(4-(trifluoromethoxy)phenyl)-1H-pyrazolo[3,4-b]pyridin-3-yl)methyl)acrylamide], the 50% inhibitory concentration (IC50) on TEAD1 turned out to be 14 nM; on TEAD3, 360 nM; at TEAD4 it was 22 nM; against TEAD2 it was 43 nM.

On to `C=C(F)C(=O)N1CC(c2nn(-c3ccc(OC(F)(F)F)cc3)c3nccc(-c4cn[nH]c4)c23)C1` [Compound 182, 1-(3-(4-(1H-pyrazol-4-yl)-1-(4-(trifluoromethoxy)phenyl)-1H-pyrazolo[3,4-b]pyridin-3-yl)azetidin-1-yl)-2-fluoroprop-2-en-1-one], for which the IC50 on TEAD1 is 25 nM; on TEAD3, 440 nM; on TEAD4, 13 nM; on TEAD2, 130 nM.

Take `C=CC(=O)NCc1nn(-c2ccc(OC(F)(F)F)cc2)c2nccc(CO)c12` [Compound 32, N-((4-(Hydroxymethyl)-1-(4-(trifluoromethoxy)phenyl)-1H-pyrazolo[3,4-b]pyridin-3-yl)methyl)acrylamide]: the IC50 was found to be 13 nM on TEAD1, 220 nM at TEAD3, 25 nM at TEAD4 and 57 nM against TEAD2.

In the case of `C=C(F)C(=O)N1CC(c2nn(-c3ccc(OC(F)(F)F)cc3)c3nccc(NC(=O)CO)c23)C1` [Compound 42, N-(3-(1-(2-Fluoroacryloyl)azetidin-3-yl)-1-(4-(trifluoromethoxy)phenyl)-1H-pyrazolo[3,4-b]pyridin-4-yl)-2-hydroxyacetamide], the IC50 on TEAD1 came out at 20 nM; on TEAD3 it was 27 nM; at TEAD4 it was 25 nM; against TEAD2, 200 nM.

Regarding `C=C(F)C(=O)N1CC(c2nn(-c3ccc(OC(F)(F)F)cc3)c3nccc(N4CC(O)C4)c23)C1` [Compound 81, 2-Fluoro-1-(3-(4-(3-hydroxyazetidin-1-yl)-1-(4-(trifluoromethoxy)phenyl)-1H-pyrazolo[3,4-b]pyridin-3-yl)azetidin-1-yl)prop-2-en-1-one], the IC50 amounted to 32 nM on TEAD1, 240 nM on TEAD3, 11 nM on TEAD4 and 24 nM against TEAD2.

With `C=CC(=O)NCc1nn(-c2ccc(OC(F)(F)F)cc2)c2nccc(-c3cnn(C)c3)c12` [Compound 164, N-((4-(1-methyl-1H-pyrazol-4-yl)-1-(4-(trifluoromethoxy)phenyl)-1H-pyrazolo[3,4-b]pyridin-3-yl)methyl)acrylamide], the IC50 at TEAD1 was 47.9 nM; on TEAD3, 2040 nM; on TEAD4, 32 nM; at TEAD2 it was 129 nM.

Consider `C=CC(=O)NCc1nn(-c2ccc(OC(F)(F)F)cc2)c2nccc([C@H](O)COC(=O)CN)c12` [Compound 145, (S)-2-(3-(Acrylamidomethyl)-1-(4-(trifluoromethoxy)phenyl)-1H-pyrazolo[3,4-b]pyridin-4-yl)-2-hydroxyethyl 2-aminoacetate formate], for which the IC50 was found to be 140 nM at TEAD1, 49 nM at TEAD4 and 71 nM at TEAD2.

In the case of `C=CC(=O)NCc1nn(-c2ccc(S(F)(F)(F)(F)F)cc2)c2cccc([C@H](O)CO)c12` (single isomer, unassigned) [Compound 11, N-((4-(1,2-dihydroxyethyl)-1-(4-(pentafluoro-λ^6-sulfanyl)phenyl)-1H-indazol-3-yl)methyl)acrylamide], the IC50 on TEAD1 came out at 23 nM; at TEAD3, 1300 nM; at TEAD4, 17 nM; against TEAD2 it was 86 nM.

Take `C=CC(=O)NCc1nn(-c2ccc(OC(F)(F)F)cc2)c2nccc(C(=O)NCCO)c12` [Compound 25, 3-(Acrylamidomethyl)-N-(2-hydroxyethyl)-1-(4-(trifluoromethoxy)phenyl)-1H-pyrazolo[3,4-b]pyridine-4-carboxamide]: the IC50 on TEAD1 was determined as 960 nM; at TEAD3, 3700 nM; on TEAD4, 95 nM; at TEAD2, 6000 nM.

For `C=CC(=O)NCc1nn(-c2ccc(OC(F)(F)F)cc2)c2nccc([C@H]3C[C@@H](O)C3)c12` [Compound 38, N-((4-(cis-3-Hydroxycyclobutyl)-1-(4-(trifluoromethoxy)phenyl)-1H-pyrazolo[3,4-b]pyridin-3-yl)methyl)acrylamide], the IC50 on TEAD1 stood at 180 nM; on TEAD3, 50000 nM; on TEAD4, 39 nM; against TEAD2, 100 nM.

Take `C=C(F)C(=O)N1CC(c2nn(-c3ccc(OC(F)(F)F)cc3)c3nccc(-c4cnn(CC(=O)N(C)C)c4)c23)C1` [Compound 180, 2-(4-(3-(1-(2-fluoroacryloyl)azetidin-3-yl)-1-(4-(trifluoromethoxy)phenyl)-1H-pyrazolo[3,4-b]pyridin-4-yl)-1H-pyrazol-1-yl)-N,N-dimethylacetamide]: the IC50 at TEAD1 is 43 nM; at TEAD3, 50000 nM; at TEAD4, 110 nM; at TEAD2, 160 nM.

In the case of `C=CC(=O)NCc1nn(-c2ccc(OC(F)(F)F)cc2)c2nccc(N3CC(C)(O)C3)c12` [Compound 74, N-((4-(3-hydroxy-3-methylazetidin-1-yl)-1-(4-(trifluoromethoxy)phenyl)-1H-pyrazolo[3,4-b]pyridin-3-yl)methyl)acrylamide], the IC50 on TEAD1 was 32 nM; at TEAD3, 4100 nM; at TEAD4 it was 4.8 nM; against TEAD2, 140 nM.

`C=CC(=O)NCc1nn(-c2ccc(OC(F)(F)F)cc2)c2nccc(-c3cnn(C4CC4)c3)c12` [Compound 173, N-((4-(1-cyclopropyl-1H-pyrazol-4-yl)-1-(4-(trifluoromethoxy)phenyl)-1H-pyrazolo[3,4-b]pyridin-3-yl)methyl)acrylamide]: the IC50 on TEAD1 amounted to 86 nM; on TEAD3, 26200 nM; at TEAD4, 52.5 nM; at TEAD2 it was 382 nM.

For `C=C(F)C(=O)N1CC(c2nn(-c3ccc(OC(F)(F)F)cc3Cl)c3nccc(CO)c23)C1` [Compound 183, 1-(3-(1-(2-chloro-4-(trifluoromethoxy)phenyl)-4-(hydroxymethyl)-1H-pyrazolo[3,4-b]pyridin-3-yl)azetidin-1-yl)-2-fluoroprop-2-en-1-one], the IC50 on TEAD1 was determined as 180 nM; at TEAD3, 1100 nM; at TEAD4, 110 nM; against TEAD2, 1800 nM.

As for `C=C(F)C(=O)N1CC(c2nn(-c3ccc(OC(F)(F)F)cc3)c3nccc(-c4cnn(C5CC5)c4)c23)C1` [Compound 177, 1-(3-(4-(1-cyclopropyl-1H-pyrazol-4-yl)-1-(4-(trifluoromethoxy)phenyl)-1H-pyrazolo[3,4-b]pyridin-3-yl)azetidin-1-yl)-2-fluoroprop-2-en-1-one], the IC50 was 86 nM on TEAD1, 50000 nM at TEAD3, 120 nM at TEAD4 and 890 nM against TEAD2.

On to `C=C(F)C(=O)N1CC(c2nn(-c3ccc(OC(F)(F)F)cc3)c3nccc(-c4cnn(C)c4)c23)C1` [Compound 158, 2-Fluoro-1-(3-(4-(1-methyl-1H-pyrazol-4-yl)-1-(4-(trifluoromethoxy)phenyl)-1H-pyrazolo[3,4-b]pyridin-3-yl)azetidin-1-yl)prop-2-en-1-one], for which the IC50 at TEAD1 is 51 nM; on TEAD3 it was 4300 nM; at TEAD4 it was 64 nM; against TEAD2, 690 nM.

Turning to `C=CC(=O)NCc1nn(-c2ccc(OC(F)(F)F)cc2)c2nccc([C@H](O)COC(C)=O)c12` [Compound 146, (S)-2-(3-(Acrylamidomethyl)-1-(4-(trifluoromethoxy)phenyl)-1H-pyrazolo[3,4-b]pyridin-4-yl)-2-hydroxyethyl acetate], the IC50 on TEAD1 was determined as 40 nM; at TEAD4 it was 28 nM; at TEAD2, 66 nM.
